According to PubChem BioAssay AID179 (DTP/NCI, 2004):
pEC50, pIC50: −log10 of the molar value. Activity calls are given as the source filed them.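 How the source made its calls: active means compounds giving half or more protection of infected cells from virus-caused growth loss, again on retest; inactive means the rest.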

Test system: CEM cells HIV-1 protection, formazan growth assay
Test: NCI AIDS Antiviral Assay
Conditions: for pIC50: measured here: growth of uninfected CEM cells
Procedure, shortened: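 Soluble formazan readout of cell growth; CEM cells ± HIV-1; 5 drug concs. ≥50% protection → retest; ≥50% again = moderately active; reproducible 100% = confirmed active.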

Row | Compound | pEC50 | pIC50 | outcome
1 | O=C1O[C@H]2C3C4CCC(C4[C@@H]2I)[C@H]13 (stereo not given in full) | < 3.70 | < 3.70 | 
2 | Cc1ccc(C2=C(C#N)C(=O)N3CCN=C3S2)cc1 | < 3.70 | < 4.00 | 
3 | CCCCCC(Nc1nncs1)Nc1nncs1 | < 3.70 | < 3.70 | 
4 | NC(N)=NCCCC(NC(=O)OCCCCCn1ccc(N)nc1=O)C(=O)O (stereo not given) | < 3.70 | < 3.70 | 
5 | CSC(=S)OC1C(CO[Si](C)(C)C(C)(C)C)OC2OC(C)(C)OC21 (stereo not given) |  |  | inactive
6 | S=C(N/N=C(/c1ccccc1)c1ccccn1)N1CCCCC1 | < 5.70 | 7.41 | 
7 | CCC1CCC2CCCC(C)N12 (stereo not given) | < 2.83 | < 2.83 | 
8 | CN1C(=O)C2C3C=C4c5ccccc5N(c5ccccc5)C4(C2C1=O)[C@H]1C(=O)N(C)C(=O)[C@@H]31 (stereo not given in full) | < 4.79 | < 4.79 | 
9 | CCOc1ccc(N=O)c(O)c1 | < 3.70 | 5.40 | 
10 | CCCCCC(=O)Nc1n[nH]nc1C#N | < 3.70 | < 3.70 | 
11 | CC[N+](C)(CC)CCC(O)(c1ccccc1)c1ccccc1 | < 3.70 | < 3.70 | 
12 | Cc1c2c(cc3c1C(=O)C(=O)C([C@@H](C)CO)=C3O)C(C)(C)CCC2 | < 3.70 | 4.82 | 
13 | COc1cccc(OC)c1NC1=NCCO1 | < 3.70 | 3.92 | 
14 | C=C(Br)CN(C(C)=O)C1CCCCC1 | < 3.70 | < 3.70 | 
15 | CCCCCCCCCCCC(=O)NCc1ccc(OC(=O)CCCCCCCCCCC)c(OC)c1 | < 3.70 | 4.39 | 
16 | CN(C)CCCNC(=O)c1c(O)c2ccccc2[nH]c1=O | < 3.70 | < 3.70 | 
17 | O=C(Nc1ccc(Cl)c(Cl)c1)O/N=C\c1c(Cl)ccc([N+](=O)[O-])c1Cl |  |  | inactive
18 | Nc1ccc(/C=C/c2ccc(N)cc2S(=O)(=O)O)c(S(=O)(=O)O)c1 |  |  | inactive
19 | Cc1ccc(S(=O)(=O)n2ccn3c(=O)cc(C)nc23)cc1 | < 3.70 | < 3.70 | 
20 | Cc1cc(OP2(=O)NCc3ncccc3O2)ccc1Cl (stereo not given) | < 3.70 | < 3.70 | 
21 | C#CCN(Cc1ccc2nc(OC)c(OC)nc2c1)c1cc(OC)c(OC)c(OC)c1 | < 3.70 | 4.95 | 
22 | Cc1c(C(=O)c2ccccc2C(=O)O)c2ccccc2n1C |  |  | inactive
23 | O=[N+]([O-])c1cccc([N+](=O)[O-])c1S(=O)(=O)c1ccccc1 | < 4.21 | 5.20 | 

Row | Compound | pEC50 | pIC50 | outcome
24 | COc1ccc(S(=O)(=O)N[C@H](C(=O)O)c2ccccc2)cc1 |  |  | inactive
25 | COc1cc(N(C)C)c(OC)cc1/C=C1\C=Cc2ccccc21 | < 4.77 | < 4.77 | 
26 | C[Si](C)(C)CCOCN(C(=O)C1=CCC2(CC1)OCCO2)c1ccccc1I | < 3.70 | 4.89 | 
27 | O=C(CCBr)N1CCN(C(=O)CCBr)CC1 | < 3.15 | 5.03 | 
28 | COc1cc2c3c(c1)nnn3C(=O)CS2 | < 3.70 | < 3.70 | 
29 | CC1CCC2[C@@H](C)COC3O[C@]4(C)CCC1C32OO4 (stereo not given in full) | < 3.47 | 3.52 | 
30 | CC(=O)OC1C(C)(O)[C@@H]2CC[C@H]3C4(C)CCCC(C)(C)[C@H]4CC[C@]13C2 (stereo not given in full) | < 4.30 | < 4.30 | 
31 | CSc1nc2c(nc(N)n2C2OCC(O)C(O)C2O)c(=O)n1C (stereo not given) |  |  | inactive
32 | Cc1ccc(N2C(=O)/C(=C3\Sc4c(nc(C)[nH]c4=O)N3c3ccccc3)SC2=S)cc1 | < 5.39 | < 5.39 | 
33 | Nc1ncnc2snnc12 | < 3.70 | < 3.70 | 
34 | O=c1c2c([nH]c3nccn13)CCC2 | < 3.70 | < 3.70 | 
35 | CC(C)N=C(NC#N)NS(=O)(=O)c1cnccc1NC1CCCCCCC1 | < 3.70 | < 3.70 | 
36 | COc1cc(C2c3cc4c(cc3[C@H](NC(=O)c3cccs3)C3COC(=O)[C@H]23)OCO4)cc(OC)c1OC (stereo not given in full) |  |  | inactive
37 | O=C(Nc1ccc(C2=NCCN2)cc1)C1CCC(C(=O)Nc2ccc(C3=NCCN3)cc2)CC1 (stereo not given) | < 3.70 | 4.96 | 
38 | Cc1cc([N+](=O)[O-])c(C)c2c1[nH]c1ccc(O)cc12 | < 4.41 | 5.16 | 
39 | O=[N+]([O-])c1ccc(C2N3CCCCC3[C@@H]3c4[nH]c5ccccc5c4CCN23)cc1 (stereo not given in full) | < 4.46 | < 4.46 | 
40 | COc1cccc(C(CC(=O)O)=NCCc2c[nH]c3ccccc23)c1C(=O)O | < 3.22 | 3.50 | 
41 | O=C(O)c1ccc(CSc2ccc(Cl)cc2)cc1 | < 4.45 | < 4.45 | 
42 | C=C(C)CNC(=S)N(N)c1ccc(OC)cc1 | < 3.70 | 4.16 | 
43 | CN1CCN(C2Sc3ccccc3C(=O)N3CCCC23)CC1 (stereo not given) | < 3.90 | < 3.90 | 
44 | CC(=O)C1C(=O)C(=O)N(c2ccc([N+](=O)[O-])cc2[N+](=O)[O-])C1=O (stereo not given) | < 3.70 | < 3.70 | 
45 | CCCCN1C[C@H](OC(=O)CCC)[C@@H](OC(=O)CCC)[C@H](OC(=O)CCC)[C@H]1COC(=O)CCC | < 3.70 | < 3.70 | 
46 | CC(=O)OCC(CC[CH2][Sn]([Cl])([Cl])[c]1ccccc1)OC(C)=O (stereo not given) |  |  | inactive

Row | Compound | pEC50 | pIC50 | outcome
47 | Oc1ccc2ccc3c(c2c1)CN(Cc1ccccc1)CO3 | < 4.61 | < 4.61 | 
48 | O=C1CSC2=NC3=C(CSC/C3=C\c3ccc(Cl)cc3)C(c3ccc(Cl)cc3)N12 (stereo not given) | < 3.70 | 5.01 | 
49 | C[Si](C)(C)C#C[I+]c1ccccc1 |  |  | inactive
50 | CC(C)N(CN1C(=O)N/C(=C/c2cccc(/C=C3/NC(=O)N(CN(C(C)C)C(C)C)C3=O)c2)C1=O)C(C)C | < 3.30 | 4.12 | 
51 | O=C1OCCN(c2cccc(Cl)c2)CCO1 |  |  | inactive
52 | CC1=CCC2(C#N)CCC1C2O (stereo not given) | < 2.82 | < 2.82 | 
53 | O=C(O)CCCCCCC[C@H]1S[C@H]1CCCCCCO |  |  | inactive
54 | CN1C2c3ccccc3C3C4c5ccccc5C(C31)C(C2[N+](=O)[O-])N4C (stereo not given) | < 4.36 | 4.56 | 
55 | Cc1cn(CCOCCOC(=O)NC(CCCNC(N)=O)C(=O)O)c(=O)[nH]c1=O (stereo not given) | < 3.70 | < 3.70 | 
56 | O=c1nc2c(c(-c3ccccc3Cl)[nH]1)COC/C2=C\c1ccccc1Cl | < 3.70 | 4.05 | 
57 | Cc1ccc(N=Nc2c(S(=O)(=O)O)cc3cc(NC(=O)Nc4ccc5c(O)c(N=Nc6ccc7cc(S(=O)(=O)O)ccc7c6)c(S(=O)(=O)O)cc5c4)ccc3c2O)cc1 |  |  | active
58 | O=c1[nH]c(=S)[nH]c2nc[nH]c12 | < 3.70 | < 3.70 | 
59 | CCOC(=O)C1N(S(=O)(=O)c2ccc(C)cc2)CCC12c1ccccc1N(C(C)=O)C2c1ccc(OC)c(OC)c1 (stereo not given) |  |  | inactive
60 | CSC(SC)=C1Sc2cccc(Cl)c2S1 | < 5.03 | < 5.03 | 
61 | O=C(c1cccs1)N(C(=S)N1CCN(c2ccccn2)CC1)c1ccccc1 | < 4.75 | < 4.75 | 
62 | CON[C@@H]1C[C@H](n2cc(C)c(=O)[nH]c2=O)O[C@@H]1CO[Si](C)(C)C(C)(C)C | < 3.70 | 3.97 | 
63 | c1cc(N(CCn2cccn2)CCn2cccn2)cc(N(CCn2cccn2)CCn2cccn2)c1 |  |  | inactive
64 | O=S1(=O)CC(N2CCOCC2)C2=C(O1)c1sc(-c3ccccc3)nc1CC2 (stereo not given) |  |  | inactive
65 | COc1ccc(C(=O)N2CCN(c3ccc4c(c3)OCC(=O)N4)CC2)cc1 | < 3.70 | < 3.70 | 
66 | COc1ccc(C(CC(=O)c2ccc3c(c2)OCO3)c2c(O)c3ccccc3oc2=O)cc1OC (stereo not given) | < 3.70 | 4.12 | 
67 | CN(C)c1ccc(/C=C(\NC(=O)c2ccccc2)C2NC(Cc3c[nH]c4ccccc34)C(=O)O2)cc1 (stereo not given) | < 4.00 | 5.06 | 
68 | O=C(CC(c1ccccc1)C(C(=O)c1ccncc1)C(CC(=O)c1ccncc1)c1ccccc1)c1ccncc1 (stereo not given) | < 3.70 | < 3.70 | 
69 | O=C1/C(=C/c2ccccc2)CCCC/C1=C\c1ccccc1 | < 5.16 | < 5.16 | 

Row | Compound | pEC50 | pIC50 | outcome
70 | Cc1cc2c(cc1C)NC(C)CC(=O)N2 (stereo not given) | < 3.70 | < 3.70 | 
71 | COc1ccc2c(c1)N(C(C)=O)CN1C(=O)CCC21 (stereo not given) |  |  | inactive
72 | N#CC(C#N)=CC=C1c2ccccc2Sc2ccccc21 | < 4.74 | < 4.74 | 
73 | COC12OC3(C4OC41)C(C(=O)O[C@H]3CO)C2S(=O)(=O)c1ccccc1 (stereo not given in full) | < 3.70 | < 3.70 | 
74 | CCCCCCCCCCCCS(=O)(=O)O (tested in a mixture with another compound) | < 3.70 | 3.97 | 
75 | CCOP(=O)(CCCC(O)CNc1nc(N)nc(Cl)c1N=Nc1ccc(Cl)cc1)OCC (stereo not given) | < 3.70 | 5.24 | 
76 | O=c1c(O)c(O)c(=O)c(=O)c1=O |  |  | inactive
77 | Cn1c2ccccc2c(=O)c2c(O)cc3c(c21)N=CC(C)(C)O3 |  |  | inactive
78 | COc1ccc(CCCCl)c(C2=NCCc3cc(OC)c(OC)cc32)c1 | < 3.70 | 4.44 | 
79 | O=C1C2Nc3ccccc3SC2C(=O)N1c1cccc([N+](=O)[O-])c1 (stereo not given) | < 4.26 | < 4.26 | 
80 | CN(C)CCCNC(=O)c1c(O)c2ccccc2n(C)c1=O | < 3.70 | 4.10 | 
81 | OCC1CC(F)C(n2cnc3c(NC4CC4)ncnc32)O1 (stereo not given) | < 3.70 | < 3.70 | 
82 | O=C1NC(O)c2cc(O)ccc2O1 (stereo not given) | < 3.70 | 4.09 | 
83 | Oc1ccc(-c2nc(-c3cccnc3)c(-c3ccc(Cl)cc3)[nH]2)cc1O | < 3.70 | 4.86 | 
84 | Cc1oc2nc(N(C)C)n3nnnc3c2c1C |  |  | inactive
85 | Nc1ncc(/C=N/O)c(NCC2(CO)CC(CCc3ccccc3)C2)n1 (stereo not given) | < 5.70 | 6.22 | 
86 | CC/C=C\C/C=C\C/C=C\CCCCCCCC(=O)OCC | < 3.70 | 3.98 | 
87 | O=c1[nH]c2ccc(CC(=S)N3CCN(c4ccccc4)CC3)cc2o1 | < 3.70 | < 3.70 | 
88 | CCN(CC)CCN1CCNc2c3cc(OC)ccc3nc3c([N+](=O)[O-])ccc1c23 | < 4.00 | 5.80 | 
89 | O=C1CCC(c2nc3ccccc3o2)C(=O)N1 (stereo not given) | < 2.97 | < 2.97 | 
90 | CCCCOCCOC(=O)C1C(C=C(C)C)C1(C)C (stereo not given) | < 3.70 | < 3.70 | 
91 | CCOCC(=O)N[C@H]1CCc2cc(OC)c(OC)c(OC)c2-c2ccc(OC)c(=O)cc21 | < 5.70 | 8.46 | 
92 | O=C1CCCC2=C1CC1=C(CCCC1=O)N2c1ccccc1 | < 4.00 | < 4.00 | 
